According to US20230181580A1, “TREATMENT OF PROLIFERATIVE DISEASES OF THE CNS” (AUCENTRA THERAPEUTICS PTY LTD, priority 2020, published 2023):
Blank lines part the entries; values can stand above or below the molecule they belong to.

Columns and labels:
[1] = target: CDK1/B (Homo sapiens, UniProt P06493); test: CDK kinase inhibition assay (radiometric / ADP Glo); type: biochemical
Method: (§1) Eurofins Pharma Discovery or Reaction Biology Corporation Kinase Profiler services were used to measure inhibition of CDKs and other kinases by radiometric assay (RIA). Inhibition of CDK4/Cyclin D1, CDK6/Cyclin D3 and CDK9/T1 were also determined in-house using ADP Glo Kinase assays (Promega Corporation, Madison Wis., United States of America). Briefly, the kinase reaction for CDK4/Cyclin D1 and CDK6/Cyclin D3 was performed with kinase reaction buffer ([…] Tris base pH 7.5, 20 mM MgCl2, 0.4 mM DTT), 0.1 mg/ml BSA and RB-CTF substrate (retinoblastoma protein1 C-terminal fraction). For CDK9/CyclinT1, the kinase reaction was performed with standard assay buffer and Kinase Dilution Buffer and RBER-IRStide substrate. Serial dilutions of 1:3 were prepared for test compounds for 10 concentrations (from 10 μM to 0.5 nM). The kinase reactions were started by addition of ATP, incubated for 40 min at 37° C. and then stopped by adding 10 μL of ADP Glo reagent. After incubation at room temperature (RT) in the dark for 40 min, 20 μL of kinase detection reagent was added per well and incubated for 40 min. Luminescence was measured using an EnVision Multilabel plate reader (PerkinElmer, Buckinghamshire, United Kingdom). Positive and negative controls were performed in the presence and absence of CDK kinases, respectively. Half-maximal inhibition (IC50) values were calculated using a 4-parameter logistic non-linear regression model with Graphpad prism (Version 6.0). Apparent inhibition constants (Ki) values were calculated from Km (ATP) and IC50 values for the respective kinases.

[2] = target: CDK2/A (Homo sapiens, UniProt P24941); test: as above; type: biochemical
Method: as §1

[3] = target: CDK4/D1 (Homo sapiens, UniProt P11802); test: as above; type: biochemical
Chain of CDK4/D1 (P11802 whole entry): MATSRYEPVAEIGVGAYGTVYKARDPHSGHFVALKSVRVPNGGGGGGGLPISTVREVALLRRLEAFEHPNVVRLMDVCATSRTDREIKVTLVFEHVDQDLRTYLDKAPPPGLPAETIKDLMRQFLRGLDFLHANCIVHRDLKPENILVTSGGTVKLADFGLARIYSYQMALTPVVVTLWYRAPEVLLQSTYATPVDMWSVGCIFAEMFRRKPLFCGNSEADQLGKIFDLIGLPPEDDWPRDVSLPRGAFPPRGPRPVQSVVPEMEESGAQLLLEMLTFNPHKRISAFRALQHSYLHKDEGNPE
Chain of CDK4/D1 (P24385 whole entry partner): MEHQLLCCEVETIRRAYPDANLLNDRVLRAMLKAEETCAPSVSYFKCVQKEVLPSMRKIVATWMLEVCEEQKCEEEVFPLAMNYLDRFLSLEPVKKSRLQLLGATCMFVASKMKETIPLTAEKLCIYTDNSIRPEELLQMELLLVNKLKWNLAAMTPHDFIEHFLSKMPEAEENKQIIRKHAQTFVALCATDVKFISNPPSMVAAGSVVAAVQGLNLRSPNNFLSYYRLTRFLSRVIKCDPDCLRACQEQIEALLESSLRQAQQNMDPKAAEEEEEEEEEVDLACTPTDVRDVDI
Method: as §1

[4] = target: CDK6/D3 (Homo sapiens, UniProt Q00534); test: as above; type: biochemical
Chain of CDK6/D3 (Q00534 whole entry): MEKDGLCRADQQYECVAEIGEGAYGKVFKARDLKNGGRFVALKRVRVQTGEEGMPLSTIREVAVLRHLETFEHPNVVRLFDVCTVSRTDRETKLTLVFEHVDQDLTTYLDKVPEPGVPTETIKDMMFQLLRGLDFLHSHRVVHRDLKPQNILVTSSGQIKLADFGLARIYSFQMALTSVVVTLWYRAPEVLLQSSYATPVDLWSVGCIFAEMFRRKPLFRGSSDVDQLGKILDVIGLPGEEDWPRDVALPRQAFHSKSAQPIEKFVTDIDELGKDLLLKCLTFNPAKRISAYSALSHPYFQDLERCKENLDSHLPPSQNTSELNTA
Chain of CDK6/D3 (P30281 whole entry partner): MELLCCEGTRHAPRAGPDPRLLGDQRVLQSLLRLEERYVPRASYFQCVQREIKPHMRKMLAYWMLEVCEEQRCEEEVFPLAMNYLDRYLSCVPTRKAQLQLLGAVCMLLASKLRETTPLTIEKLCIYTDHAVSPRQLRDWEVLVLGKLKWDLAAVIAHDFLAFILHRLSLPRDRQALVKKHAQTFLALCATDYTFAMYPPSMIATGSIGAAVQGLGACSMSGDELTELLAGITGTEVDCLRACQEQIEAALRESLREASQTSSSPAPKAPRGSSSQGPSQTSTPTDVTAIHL
Method: as §1

[5] = target: CDK9/T1 (Homo sapiens, UniProt P50750); test: as above; type: biochemical
Chain of CDK9/T1 (P50750 whole entry): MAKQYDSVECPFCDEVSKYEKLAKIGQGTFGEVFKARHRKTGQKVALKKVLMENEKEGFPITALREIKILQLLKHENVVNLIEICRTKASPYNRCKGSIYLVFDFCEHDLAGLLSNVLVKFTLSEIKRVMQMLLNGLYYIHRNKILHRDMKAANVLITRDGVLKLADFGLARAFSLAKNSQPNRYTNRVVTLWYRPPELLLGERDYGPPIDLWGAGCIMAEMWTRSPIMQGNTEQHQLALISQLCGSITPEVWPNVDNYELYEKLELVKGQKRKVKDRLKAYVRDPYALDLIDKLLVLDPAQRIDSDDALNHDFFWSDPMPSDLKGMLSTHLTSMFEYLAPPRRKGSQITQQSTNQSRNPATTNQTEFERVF
Chain of CDK9/T1 (O60563 whole entry partner): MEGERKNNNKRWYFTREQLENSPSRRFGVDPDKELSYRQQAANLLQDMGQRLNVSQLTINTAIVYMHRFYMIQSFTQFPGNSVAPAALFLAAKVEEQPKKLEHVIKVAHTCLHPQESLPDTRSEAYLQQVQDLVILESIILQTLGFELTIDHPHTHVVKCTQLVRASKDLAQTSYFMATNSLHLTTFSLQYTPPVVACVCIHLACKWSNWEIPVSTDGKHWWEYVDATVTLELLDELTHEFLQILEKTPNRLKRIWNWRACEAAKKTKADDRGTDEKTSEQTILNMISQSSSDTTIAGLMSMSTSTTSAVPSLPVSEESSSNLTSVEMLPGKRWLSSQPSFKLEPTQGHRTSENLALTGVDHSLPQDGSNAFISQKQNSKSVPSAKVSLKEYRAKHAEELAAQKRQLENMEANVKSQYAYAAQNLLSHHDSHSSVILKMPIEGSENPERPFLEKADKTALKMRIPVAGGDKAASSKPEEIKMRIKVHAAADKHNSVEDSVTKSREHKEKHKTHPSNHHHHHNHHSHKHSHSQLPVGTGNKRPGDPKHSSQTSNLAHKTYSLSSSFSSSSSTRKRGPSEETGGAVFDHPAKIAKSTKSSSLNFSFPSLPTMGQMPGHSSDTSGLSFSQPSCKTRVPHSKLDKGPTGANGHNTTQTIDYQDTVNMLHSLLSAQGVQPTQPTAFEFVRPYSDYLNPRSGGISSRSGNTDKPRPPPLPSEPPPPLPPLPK
Method: as §1

[6] = system: MV4-11; test: Resazurin proliferation assay, leukaemia cell line; type: cell-based; settings: Homo sapiens, 72 h, read-out: Antiproliferative activity GI50 MV4-11
From the text: (§2) Representative compounds from Example 1, were subjected to standard MTT (3-(4,5-dimethylthiazol-2-yl)-2,5-diphenyltetrazolium bromide) and resazurin assays on solid tumour cell lines (including GBM cell lines) and leukemia cell lines, respectively, as previously reported (Wang S et al., J Med Chem 47:1662-1675, 2004; and Diab S. et al. CheMedChem 9:962-972, 2014).

[7] = system: MB453; test: MTT proliferation assay, breast; type: cell-based; settings: 72 h, read-out: Antiproliferative activity GI50 MB453
From the text: as §2

[8] = system: Colo205; test: MTT proliferation assay, colorectal; type: cell-based; settings: Homo sapiens, COLO 205, 72 h, read-out: Antiproliferative activity GI50 Colo205
From the text: as §2

[9] = system: T98G; test: MTT proliferation assay, glioblastoma; type: cell-based; settings: Homo sapiens, 72 h, read-out: Antiproliferative activity GI50 T98G
Method: (§3) All three GBM cell lines used in this example, namely U87, U251 and T98G, were cultured in Eagle's Minimum Essential Medium (EMEM) with 10% fetal bovine serum in 75 cm^2 flasks at 37° C. and 5% CO2. All cell lines were confirmed to be mycoplasma-free prior to any experiment setup.
as §2

[10] = system: U251; test: MTT proliferation assay, glioblastoma; type: cell-based; settings: Homo sapiens, U-251, 72 h, read-out: Antiproliferative activity GI50 U251
Method: as §3, §2

[11] = system: U87; test: MTT proliferation assay, glioblastoma; type: cell-based; settings: Homo sapiens, U-87 MG, 72 h, read-out: Antiproliferative activity GI50 U87
Method: as §3, §2

[12] = system: H460; test: MTT proliferation assay, lung; type: cell-based; settings: Homo sapiens, NCI-H460, 72 h, read-out: Antiproliferative activity GI50 H460
From the text: as §2

[13] = system: A2780; test: MTT proliferation assay, ovarian; type: cell-based; settings: Homo sapiens, 72 h, read-out: Antiproliferative activity GI50 A2780
From the text: as §2

[14] = system: PANC1; test: MTT proliferation assay, pancreas; type: cell-based; settings: Homo sapiens, PANC-1, 72 h, read-out: Antiproliferative activity GI50 PANC1
From the text: as §2

[15] = system: LNCap; test: MTT proliferation assay, prostate; type: cell-based; settings: Homo sapiens, 72 h, read-out: Antiproliferative activity GI50 LNCap
From the text: as §2

[16] = system: M229; test: MTT proliferation assay, melanoma; type: cell-based; settings: 72 h, read-out: Antiproliferative activity GI50 M229
From the text: as §2

[17] = system: U87 GBM cells; test: Subcutaneous U87 GBM xenograft, single agents; type: in vivo
From the text: (§4) Compound 1 and compound 2 were also investigated for in vivo antitumour activity in subcutaneous xenograft models. Briefly, U87 GBM cells were harvested and resuspended in a 1:1 mixture of serum-free media and matrigel, and 5×10^6 cells injected subcutaneously into the rear flank of 5-6-week-old CD1 nu/nu female mice. When the mean tumour volume reached 150-200 mm^3, animals were randomised to treatment groups (n=10 per group) and treated orally with vehicle (0.5% carboxymethyl cellulose in water), compound 1 or compound 2 daily for 21 days with the doses shown in FIGS. 5A and 5B. Mice were observed daily for signs of toxicity and weight loss, and tumour volume measured every other day.

[18] = system: U87 xenografted mice; test: Subcutaneous U87 xenograft, compound 2 and TMZ study; type: in vivo; settings: 25 mg/kg PO daily, single agent and with TMZ
From the text: as §4
In another study, U87 xenografted mice (n=8 per group) were treated with: (1) vehicle, (2) compound 2 (25 mg/kg, PO, daily), (3 and 4) TMZ (5 mg/kg or 50 mg/kg, PO, 5 day/week), (5) pre-treatment with compound 2 (25 mg/kg, PO, daily ×10), followed by TMZ (5 mg/kg, PO, 5 day/week ×2), (6) pre-treatment with TMZ (5 mg/kg, PO, 5 day/week ×2) followed by compound 2 (25 mg/kg, PO, daily ×10), and (7) co-treatment with compound 2 and TMZ, respectively. All treatment groups were completed by day 21, which were followed by a 7-day drug holiday before the second cycle of treatment started from day 29 (FIG. 5B).

[19] = system: U87 GBM cells; test: Orthotopic U87 GBM xenograft; type: in vivo, NSG mice
Method: In vivo anti-tumour efficacy of compound 1 and compound 2 was also investigated in GBM orthotopic mouse xenograft models. For example, compound 2 was administered orally once daily for 21 days to NSG mice (n=8) (The Jackson Laboratory, Ben Harbor, Me., United States of America) orthotopically engrafted with the U87 GBM cells per each treatment cohort. TMZ was given orally once daily for 5 days and was used as a positive control. The disease burden was measured by a non-invasive bioluminescent whole-body imaging technique.

[20] = target: CDK7/H (Homo sapiens, UniProt P50613); test: CDK kinase inhibition assay (radiometric / ADP Glo); type: biochemical
Chain of CDK7/H (P50613 whole entry): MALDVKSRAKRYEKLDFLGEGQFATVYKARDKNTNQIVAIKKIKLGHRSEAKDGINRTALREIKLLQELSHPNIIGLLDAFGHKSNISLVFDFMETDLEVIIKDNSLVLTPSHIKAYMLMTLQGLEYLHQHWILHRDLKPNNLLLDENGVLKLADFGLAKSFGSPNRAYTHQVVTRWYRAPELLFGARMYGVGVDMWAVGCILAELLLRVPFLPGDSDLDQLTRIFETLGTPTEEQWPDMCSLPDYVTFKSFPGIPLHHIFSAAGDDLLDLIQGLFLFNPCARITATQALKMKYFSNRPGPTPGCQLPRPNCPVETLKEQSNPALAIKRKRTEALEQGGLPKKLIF
Chain of CDK7/H (P51946 whole entry partner): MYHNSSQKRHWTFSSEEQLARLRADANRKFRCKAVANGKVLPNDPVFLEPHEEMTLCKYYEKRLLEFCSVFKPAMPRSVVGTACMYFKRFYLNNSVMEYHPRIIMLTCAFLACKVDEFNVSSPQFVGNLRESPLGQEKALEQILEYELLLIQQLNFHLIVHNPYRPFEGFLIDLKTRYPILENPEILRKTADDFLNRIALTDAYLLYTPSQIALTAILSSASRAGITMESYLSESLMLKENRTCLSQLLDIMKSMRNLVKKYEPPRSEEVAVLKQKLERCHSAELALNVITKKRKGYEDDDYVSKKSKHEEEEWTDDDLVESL
Chain of CDK7/H (P51948 whole entry partner): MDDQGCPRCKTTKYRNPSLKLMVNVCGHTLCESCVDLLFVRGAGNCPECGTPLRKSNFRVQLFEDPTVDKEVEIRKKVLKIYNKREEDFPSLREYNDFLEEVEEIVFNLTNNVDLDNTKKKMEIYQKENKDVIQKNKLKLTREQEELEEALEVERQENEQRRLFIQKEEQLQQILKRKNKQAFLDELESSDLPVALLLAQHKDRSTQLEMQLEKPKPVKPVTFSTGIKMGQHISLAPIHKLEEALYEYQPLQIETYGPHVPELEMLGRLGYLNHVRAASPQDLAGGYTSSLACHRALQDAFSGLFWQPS
Method: as §1

Chain of CDK1/B (P06493 whole entry): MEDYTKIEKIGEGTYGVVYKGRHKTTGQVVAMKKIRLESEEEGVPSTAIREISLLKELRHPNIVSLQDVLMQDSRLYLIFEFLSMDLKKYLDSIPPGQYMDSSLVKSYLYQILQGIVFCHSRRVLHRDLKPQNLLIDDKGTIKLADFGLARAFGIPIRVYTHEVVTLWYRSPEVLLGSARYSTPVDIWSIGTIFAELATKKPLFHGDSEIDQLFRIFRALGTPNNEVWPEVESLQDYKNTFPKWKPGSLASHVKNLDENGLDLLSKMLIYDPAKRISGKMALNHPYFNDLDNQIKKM
Chain of CDK1/B (P14635 whole entry partner): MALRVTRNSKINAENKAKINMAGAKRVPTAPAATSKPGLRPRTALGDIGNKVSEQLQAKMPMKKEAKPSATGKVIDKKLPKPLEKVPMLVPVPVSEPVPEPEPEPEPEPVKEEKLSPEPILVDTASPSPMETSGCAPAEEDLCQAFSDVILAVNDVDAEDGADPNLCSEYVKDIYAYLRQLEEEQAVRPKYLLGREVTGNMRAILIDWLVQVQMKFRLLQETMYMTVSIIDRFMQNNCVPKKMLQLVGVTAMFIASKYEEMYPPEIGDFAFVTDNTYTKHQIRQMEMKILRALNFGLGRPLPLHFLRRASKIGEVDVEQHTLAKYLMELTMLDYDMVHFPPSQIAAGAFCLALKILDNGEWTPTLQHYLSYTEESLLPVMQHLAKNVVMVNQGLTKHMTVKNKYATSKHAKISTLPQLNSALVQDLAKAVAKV

Structure (SMILES): CCN1CCN(Cc2ccc(Nc3ncc(F)c(-c4sc(NC5CCCC5)nc4C)n3)nc2)CC1 [Compound 2, N-cyclopentyl-5-(2-((5-((4-ethylpiperazin-1-yl)methyl)pyridin-2-yl)amino)-5-fluoropyrimidin-4-yl)-4-methylthiazol-2-amine]
Ki [1]: > 1000 nM | Ki [2]: 620 nM | Ki [3]: 0.2 nM | Ki [4]: 3 nM | Ki [5]: > 1000 nM | GI50 [6]: 10 nM | GI50 [7]: 620 nM | GI50 [8]: 1550 nM | GI50 [9]: 4180 nM | GI50 [10]: 5090 nM | GI50 [11]: 2170 nM | GI50 [12]: 410 nM | GI50 [13]: 40 nM | GI50 [14]: 1210 nM | GI50 [15]: 280 nM | GI50 [16]: 830 nM | T/C ([17]; day 21, oral daily for 21 days, vs vehicle, p<0.001): 6% | tumour growth compared to vehicle treatment ([17]; oral daily for 21 days): markedly reduced tumour growth | toxicity ([17]; oral daily for 21 days, observed daily for signs of toxicity and weight loss): without any overt toxicity | toxicity [18]: without any overt toxicity | anti-tumour efficacy ([18]; p<0.001 vs vehicle): significant anti-tumour efficacy both as a single agent and in combination with TMZ | inhibition in tumour growth (TGI) ([19]; day 21, oral once daily for 21 days, vs vehicle, p<0.001): 81.4% | increase in life span ratio (ILS) ([19]; vs vehicle control, ILS=(DaysT−DaysC)/DaysC): 154.8%

Structure (SMILES): Cc1nc(NC2CCCC2)sc1-c1ccnc(Nc2ccc(N3CCNCC3)cn2)n1 [Compound 3, N-cyclopentyl-4-methyl-5-(2-((5-(piperazin-1-yl)pyridin-2-yl)amino)pyrimidin-4-yl)thiazol-2-amine]
Ki [1]: > 1000 nM | Ki [2]: > 1000 nM | Ki [3]: 1 nM | Ki [4]: 34 nM | Ki [20]: > 1000 nM | Ki [5]: 220 nM | GI50 [6]: 20 nM | GI50 [7]: 70 nM

Structure (SMILES): CCN1CCN(c2ccc(Nc3nccc(-c4sc(NC5CCCC5)nc4C)n3)nc2)CC1 [Compound 4, N-cyclopentyl-5-(2-((5-(4-ethylpiperazin-1-yl)pyridin-2-yl)amino)pyrimidin-4-yl)-4-methylthiazol-2-amine]
Ki [1]: > 1000 nM | Ki [2]: 355 nM | Ki [3]: 2 nM | Ki [4]: 11 nM | Ki [5]: 141 nM | GI50 [6]: 10 nM | GI50 [7]: 290 nM

Structure (SMILES): CNc1nc(C)c(-c2nc(Nc3ccc(N4CCN(C(C)=O)CC4)cn3)ncc2C#N)s1 [Compound 5, 2-((5-(4-acetylpiperazin-1-yl)pyridin-2-yl)amino)-4-(4-methyl-2-(methylamino)thiazol-5-yl)pyrimidine-5-carbonitrile]
Ki [1]: > 1000 nM | Ki [2]: > 1000 nM | Ki [3]: 4 nM | Ki [4]: 30 nM | Ki [20]: > 1000 nM | Ki [5]: > 1000 nM | GI50 [6]: 170 nM | GI50 [7]: 810 nM

Continued, in another order:

Ki [1]: > 1000 nM | Ki [2]: 416 nM | Ki [3]: 6 nM | Ki [4]: 9 nM | Ki [20]: 630 nM | Ki [5]: > 1000 nM | GI50 [6]: 20 nM | GI50 [8]: 4380 nM
Structure (SMILES): CCN1CCN(Cc2ccc(Nc3nccc(-c4sc(NC5CCCC5)nc4C)n3)nc2)CC1 [Compound 6, N-cyclopentyl-5-(2-((5-((4-ethylpiperazin-1-yl)methyl)pyridin-2-yl)amino)pyrimidin-4-yl)-4-methylthiazol-2-amine]
GI50 [7]: 70 nM

Ki [1]: > 1000 nM | Ki [2]: 206 nM | Ki [3]: 3 nM | Ki [4]: 32 nM | Ki [20]: > 1000 nM | Ki [5]: > 1000 nM | GI50 [6]: 80 nM
Structure (SMILES): CNc1nc(C)c(-c2nc(Nc3ccc(N4CCC(N)CC4)cn3)ncc2F)s1 [Compound 7, 5-(2-((5-(4-aminopiperidin-1-yl)pyridin-2-yl)amino)-5-fluoropyrimidin-4-yl)-N,4-dimethylthiazol-2-amine]
GI50 [7]: 360 nM

Ki [1]: > 1000 nM | Ki [2]: 278 nM | Ki [3]: 1 nM | Ki [4]: 8 nM | Ki [20]: 282 nM | Ki [5]: 508 nM | GI50 [6]: 30 nM
Structure (SMILES): Cc1nc(NC2CCCC2)sc1-c1ccnc(Nc2ccc(N3CCC(N)CC3)cn2)n1 [Compound 8, 5-(2-((5-(4-aminopiperidin-1-yl)pyridin-2-yl)amino)pyrimidin-4-yl)-N-cyclopentyl-4-methylthiazol-2-amine]
GI50 [7]: 100 nM

Ki [1]: > 1000 nM | Ki [2]: 104 nM | Ki [3]: 6 nM | Ki [4]: 20 nM | Ki [20]: > 1000 nM | Ki [5]: > 1000 nM | GI50 [6]: 290 nM
Structure (SMILES): Cc1nc(NC2CCCC2)sc1-c1nc(Nc2ccc(N3CCOCC3)cn2)ncc1F [Compound 9, N-cyclopentyl-5-(5-fluoro-2-((5-morpholinopyridin-2-yl)amino)pyrimidin-4-yl)-4-methylthiazol-2-amine]
GI50 [7]: 1450 nM
